Results reported in patent publication US7314959B2, “Amino thiol compounds and compositions for use in conjunction with cancer therapy” (Wisconsin Alumni Research Foundation, priority 2003, dated 2008).

Tested on: A431 human epidermoid cells (xenograft in nude mice)
Experiment: Effect of topical drug on killing of tumor xenograft by external beam γ irradiation
Type: in vivo, mouse
Conditions: topical dose 5-times higher than standard regimen, adjacent to xenograft; 6.2 Gy
Description: Briefly, athymic nude mice (nu/nu, 6-7 weeks, Harlan Labs) were housed in cages containing autoclaved bedding and received autoclaved food and water. Cages were maintained in a sterile laminar flow hood. Mice received a single, sc injection of tumor cells (6.5×10^6, A431; 2.5×10^6, L1210) suspended in 200 ul of serum-free DMEM.
After three days, mice were treated with topical drug in vehicle or vehicle alone. PrC-210 was formulated in a 50:30:20 vehicle (ethanol:PG (propylene glycol):water, adjusted to pH 6.5 with NaOH), and mice received four topical applications over two hours (at −2 hr, −1 hr, −30 min and −10 min, irradiation was at 0 min). 18-20 gm nude mice received topical treatments of 13 ul, 11 ul, 11 ul and 11 ul (total=46 ul) applied to a roughly 1 cm×1.5 cm area on the right flank, which was adjacent to the tumor xenograft. For these tumor xenograft experiments, a 5-fold increase in drug concentration over the minimum effective concentration previously shown to prevent radiodermatitis was tested.
With the last topical drug application, at −10 min, the mice also received an ip injection of Nembutal (65 ug/gm b.w.). […]
Growth of the xenograft tumors was monitored by vernier caliper measurements every 1-2 days for the 18-21 days following irradiation. […]

## CNCC(CS)CNC [PrC-210, 3-methylamino-2-methylaminomethyl-propane-1-thiol]
  effect upon killing of tumor cells by external beam γ irradiation: no discernible effect
